# Paper PMC12667509, “Inhibition of Macrophage ARID3A Alleviates Myocardial Ischemia‐Reperfusion Injury After Heart Transplantation by Reducing THBS1/CD47 Signaling‐Mediated Neutrophil Extracellular Traps Formation” (Advanced Science, 2025)
# Molecular target: T1, ARID3A (Homo sapiens, UniProt Q99856)
# T1 construct: recombinant human protein immobilised on CM5 chip
# T1 sequence (Q99856 1-593): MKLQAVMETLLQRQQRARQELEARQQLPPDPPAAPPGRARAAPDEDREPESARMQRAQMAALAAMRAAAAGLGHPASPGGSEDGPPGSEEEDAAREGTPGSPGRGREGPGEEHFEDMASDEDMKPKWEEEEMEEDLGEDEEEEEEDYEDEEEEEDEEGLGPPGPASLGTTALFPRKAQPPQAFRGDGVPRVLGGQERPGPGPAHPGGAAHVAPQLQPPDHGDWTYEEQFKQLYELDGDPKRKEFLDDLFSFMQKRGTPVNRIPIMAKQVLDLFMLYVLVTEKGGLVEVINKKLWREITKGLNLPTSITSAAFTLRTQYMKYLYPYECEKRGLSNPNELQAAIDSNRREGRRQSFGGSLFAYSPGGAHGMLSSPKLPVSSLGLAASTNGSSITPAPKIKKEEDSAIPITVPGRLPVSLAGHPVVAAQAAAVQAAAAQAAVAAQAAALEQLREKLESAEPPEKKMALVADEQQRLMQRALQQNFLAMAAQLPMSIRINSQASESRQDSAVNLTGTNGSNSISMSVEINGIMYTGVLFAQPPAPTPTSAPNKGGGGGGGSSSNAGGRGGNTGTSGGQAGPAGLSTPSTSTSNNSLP
# Test: SPR (Biacore T200, CM5 chip, kinetic analysis)
# Type: binding
structure (smiles),measurement,value
"C=C(CC(=O)OCCCCCCCC)C(=O)O [4‐OI, 4‐octyl itaconate]",Kd,7.64 µM
